Where “and” joins values, the source holds several entries; their conditions need not be identical. Identical values can stand only once. Inconclusive results and toxic doses are left out. Rule for the calls: active = survival T/C of 150% or more; inactive = T/C below 125% in these data.
System: P388 leukemia ip, CD2F1 mice, survival T/C
Test: NCI In Vivo Anticancer Drug Screen. Data for tumor model P388 Leukemia (intraperitoneal) in CD2F1 (CDF1) mice
Details: endpoint: median survival time, higher = longer survival
How it was run: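 Mice carrying the transplanted tumor received test compound or vehicle. Survival was recorded in each group, and the value is the treated-group measurement divided by that of the vehicle-treated control group.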

[1] = dose: 60.0 mg/kg/injection, schedule: Q01DX005 (ip), vehicle: Klucel (hydroxypropylcellulose) (HPC)
[2] = dose: 120.0 mg/kg/injection, schedule: Q01DX005 (ip), vehicle: Klucel (hydroxypropylcellulose) (HPC)
[3] = dose: 240.0 mg/kg/injection, schedule: Q01DX005 (ip), vehicle: Klucel (hydroxypropylcellulose) (HPC)
[4] = dose: 25.0 mg/kg/injection, schedule: Q01DX009 (ip), vehicle: saline with Tween-80
[5] = dose: 50.0 mg/kg/injection, schedule: Q01DX009 (ip), vehicle: saline with Tween-80
[6] = dose: 50.0 mg/kg/injection, schedule: Q01DX009 (ip), vehicle: Klucel (hydroxypropylcellulose) (HPC)
[7] = dose: 100.0 mg/kg/injection, schedule: Q01DX009 (ip), vehicle: Klucel (hydroxypropylcellulose) (HPC)
[8] = dose: 200.0 mg/kg/injection, schedule: Q01DX009 (ip), vehicle: Klucel (hydroxypropylcellulose) (HPC)
[9] = dose: 25.0 mg/kg/injection, schedule: Q01DX005 (ip), vehicle: saline with Tween-80
[10] = dose: 50.0 mg/kg/injection, schedule: Q01DX005 (ip), vehicle: saline with Tween-80
[11] = dose: 100.0 mg/kg/injection, schedule: Q01DX005 (ip), vehicle: saline with Tween-80
[12] = dose: 200.0 mg/kg/injection, schedule: Q01DX005 (ip), vehicle: saline with Tween-80
[13] = dose: 60.0 mg/kg/injection, schedule: Q01DX005 (ip), vehicle: saline with Tween-80
[14] = dose: 120.0 mg/kg/injection, schedule: Q01DX005 (ip), vehicle: saline with Tween-80
[15] = dose: 240.0 mg/kg/injection, schedule: Q01DX005 (ip), vehicle: saline with Tween-80
[16] = dose: 50.0 mg/kg/injection, schedule: Q01DX005 (ip), vehicle: Klucel (hydroxypropylcellulose) (HPC)
[17] = dose: 100.0 mg/kg/injection, schedule: Q01DX005 (ip), vehicle: Klucel (hydroxypropylcellulose) (HPC)
[18] = dose: 60.0 mg/kg/injection, schedule: Q01DX005 (ip), vehicle: saline
[19] = dose: 120.0 mg/kg/injection, schedule: Q01DX005 (ip), vehicle: saline
[20] = dose: 240.0 mg/kg/injection, schedule: Q01DX005 (ip), vehicle: saline

Measured: T/C

CC(/C(=N/O)c1ccccc1)N1C(=O)c2ccccc2C1=O (stereo not given)
inactive: [1] 100 % of control | [2] 99 % of control | [3] 96 % of control

Clc1ccc2[nH]c3nc4ccccc4nc3c2c1
inactive: [4] 100 % of control | [5] 105 % of control | dose: 100.0 mg/kg/injection, schedule: Q04DX003 (ip), vehicle: saline with Tween-80 90 % of control | dose: 200.0 mg/kg/injection, schedule: Q04DX003 (ip), vehicle: saline with Tween-80 100 % of control | dose: 400.0 mg/kg/injection, schedule: Q04DX003 (ip), vehicle: saline with Tween-80 104 % of control

CCCCCCCCCCCCNc1ccc(Cl)cc1
inactive: [6] 117 % of control and 123 % of control | [7] 103 % of control and 113 % of control | [8] 117 % of control

O=C(/C(O)=C/c1ccccc1)c1ccccc1
inactive: dose: 100.0 mg/kg/injection, schedule: Q04DX002 (ip), vehicle: saline with Tween-80 93 % of control | dose: 200.0 mg/kg/injection, schedule: Q04DX002 (ip), vehicle: saline with Tween-80 92 % of control | dose: 400.0 mg/kg/injection, schedule: Q04DX002 (ip), vehicle: saline with Tween-80 92 % of control

CCOC(=O)c1cc(NO)c(=O)c2ccc(OC)cc2c1
inactive: [9] 91 % of control | [10] 90 % of control and 96 % of control | [11] 89 % of control | [12] 91 % of control

Cc1ccc2c(=O)n(C)c(=O)n(C)c2n1
inactive: dose: 12.5 mg/kg/injection, schedule: Q01DX009 (ip), vehicle: saline with Tween-80 98 % of control | [4] 102 % of control | [5] 103 % of control | dose: 100.0 mg/kg/injection, schedule: Q01DX009 (ip), vehicle: saline with Tween-80 103 % of control

c1ccc(-c2cc3cc4c(cc3[nH]2)Oc2ccccc2O4)cc1
inactive: dose: 17.5 mg/kg/injection, schedule: Q01DX009 (ip), vehicle: Klucel (hydroxypropylcellulose) (HPC) 100 % of control and 103 % of control and 109 % of control | dose: 35.0 mg/kg/injection, schedule: Q01DX009 (ip), vehicle: Klucel (hydroxypropylcellulose) (HPC) 100 % of control (2×) and 105 % of control | dose: 70.0 mg/kg/injection, schedule: Q01DX009 (ip), vehicle: Klucel (hydroxypropylcellulose) (HPC) 100 % of control and 103 % of control and 122 % of control | dose: 140.0 mg/kg/injection, schedule: Q01DX009 (ip), vehicle: Klucel (hydroxypropylcellulose) (HPC) 100 % of control

O=c1[nH]c(N[N+](=O)[O-])nc(-c2ccccc2)c1Br
inactive: [13] 98 % of control | [14] 100 % of control | [15] 99 % of control

CC(=O)Nc1c(Nc2ccc3c(=O)[nH]ccc3c2C)cc[nH]c1=O
inactive: [13] 102 % of control | [14] 104 % of control | [15] 103 % of control

CCC1CCCN(CCc2c(C3(CO)CCC(CO)c4c(CCN5CCCC(CC)C5)c5ccccc5n43)[nH]c3ccccc23)C1 (stereo not given)
inactive: dose: 0.7 mg/kg/injection, schedule: Q01DX009 (ip), vehicle: saline with Tween-80 106 % of control | dose: 1.4 mg/kg/injection, schedule: Q01DX009 (ip), vehicle: saline with Tween-80 102 % of control | dose: 2.8 mg/kg/injection, schedule: Q01DX009 (ip), vehicle: saline with Tween-80 102 % of control

COC(=O)C(O)C1OC(COCc2ccccc2)C(OCc2ccccc2)C1OCc1ccccc1 (stereo not given)
inactive: dose: 12.5 mg/kg/injection, schedule: Q01DX009 (ip), vehicle: distilled water + alcohol 100 % of control | dose: 25.0 mg/kg/injection, schedule: Q01DX009 (ip), vehicle: distilled water + alcohol 100 % of control | dose: 50.0 mg/kg/injection, schedule: Q01DX009 (ip), vehicle: distilled water + alcohol 103 % of control | dose: 100.0 mg/kg/injection, schedule: Q01DX009 (ip), vehicle: distilled water + alcohol 100 % of control | dose: 200.0 mg/kg/injection, schedule: Q01DX009 (ip), vehicle: distilled water + alcohol 112 % of control

CCCCCCC(O)C/C=C\CCCCCCCC(=O)O (stereo not given)
inactive: [6] 107 % of control | [7] 107 % of control | [8] 102 % of control | dose: 400.0 mg/kg/injection, schedule: Q01DX009 (ip), vehicle: Klucel (hydroxypropylcellulose) (HPC) 95 % of control

COC1OC(COS(=O)(=O)c2ccc(C)cc2)C2OC(C)(C)OC12 (stereo not given)
inactive: [16] 95 % of control | [17] 100 % of control

CSC(=S)NNC1=NCCCCC1
inactive: [6] 106 % of control | [7] 97 % of control | [8] 87 % of control

CN(C)CCN(C=O)CCN(C)C
inactive: dose: 50.0 mg/kg/injection, schedule: Q01DX005 (ip), vehicle: saline 95 % of control | dose: 100.0 mg/kg/injection, schedule: Q01DX005 (ip), vehicle: saline 88 % of control | dose: 200.0 mg/kg/injection, schedule: Q01DX005 (ip), vehicle: saline 101 % of control

Cc1ccc(N2CC3CC4(C)C=CC3(C2)O4)cc1 (stereo not given)
inactive: [13] 103 % of control | [14] 111 % of control | [15] 98 % of control

CC(C)c1c(O)c(O)c2c(c1O)C(=O)C(O)=C1C(C)(C)CCC[C@@]12C
inactive: dose: 12.5 mg/kg/injection, schedule: Q01DX005 (ip), vehicle: Klucel (hydroxypropylcellulose) (HPC) 98 % of control | dose: 25.0 mg/kg/injection, schedule: Q01DX005 (ip), vehicle: Klucel (hydroxypropylcellulose) (HPC) 94 % of control | [16] 102 % of control | [17] 100 % of control | dose: 200.0 mg/kg/injection, schedule: Q01DX005 (ip), vehicle: Klucel (hydroxypropylcellulose) (HPC) 109 % of control

c1cc2cc3c(cc2[nH]1)OCO3
inactive: dose: 50.0 mg/kg/injection, schedule: Q01DX005 (ip), vehicle: Klucel + Tween-80 95 % of control | dose: 100.0 mg/kg/injection, schedule: Q01DX005 (ip), vehicle: Klucel + Tween-80 90 % of control | dose: 200.0 mg/kg/injection, schedule: Q01DX005 (ip), vehicle: Klucel + Tween-80 95 % of control

CCCCCCCCCC(O)CCCCCC (stereo not given)
inactive: dose: 88.0 mg/kg/injection, schedule: Q01DX009 (ip), vehicle: other 109 % of control | dose: 132.0 mg/kg/injection, schedule: Q01DX009 (ip), vehicle: other 109 % of control | dose: 200.0 mg/kg/injection, schedule: Q01DX009 (ip), vehicle: other 118 % of control

CCC1=CCC2C(=O)c3cc4ccccc4cc3C(=O)C2C1 (stereo not given)
inactive: dose: 6.25 mg/kg/injection, schedule: Q01DX005 (ip), vehicle: saline with Tween-80 103 % of control | dose: 12.5 mg/kg/injection, schedule: Q01DX005 (ip), vehicle: saline with Tween-80 108 % of control | [9] 108 % of control and 93 % of control

CC(=O)NOCC1NC(=O)C(CONC(C)=O)NC1=O (stereo not given)
inactive: dose: 30.0 mg/kg/injection, schedule: Q01DX005 (ip), vehicle: saline 103 % of control | [1] 105 % of control | [18] 103 % of control | [2] 115 % of control | [19] 108 % of control | [3] 120 % of control | [20] 120 % of control

O=C1c2cc3c(cc2C(=O)c2[nH]c(=O)ccc21)CCCC3
inactive: [10] 100 % of control | [11] 88 % of control | [12] 101 % of control

CCC(c1ccc(CN(C)C)c(O)c1)C(CC)c1ccc(CN(C)C)c(O)c1 (stereo not given)
inactive: [13] 93 % of control | [14] 91 % of control | [15] 102 % of control

COc1ccccc1NC(=O)C1=C(C)NC(C)=C(C(=O)Nc2ccccc2OC)C1c1cccc([N+](=O)[O-])c1
inactive: [1] 92 % of control | [2] 88 % of control

Cc1ccccc1N1CCN(c2ccccc2C)C1=C1N(c2ccccc2C)CCN1c1ccccc1C
inactive: dose: 85.0 micrograms/kg/injection, schedule: Q01DX009 (ip), vehicle: DMSO 101 % of control | dose: 190.0 micrograms/kg/injection, schedule: Q01DX009 (ip), vehicle: DMSO 93 % of control | dose: 380.0 micrograms/kg/injection, schedule: Q01DX009 (ip), vehicle: DMSO 93 % of control

O=C(O)C(O)C(F)(F)C(F)(F)C(F)(F)C(F)(F)C(O)C(=O)O (stereo not given)
inactive: [18] 93 % of control | [19] 93 % of control | [20] 86 % of control

— PubChem BioAssay AID330 (DTP/NCI, 2004)
